Data as given in patent US6613747B2, “6-O-carbamoyl ketolide antibacterials” (Ortho-McNeil Pharmaceutical, Inc., priority 2000, dated 2003).
Values after ≈ are worked out from the molar mass of the structure shown.

Columns and labels:
Experiment in all cases: MIC, microdilution broth method (NCCLS)
Type in all cases: cell-based
E. coli OC2605 = conditions: A: E. coli OC2605, 35° C., 16-20 hours
Outline: (§1)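 Following the NCCLS microdilution standard, organisms from actively growing broth cultures are added at roughly 5×10^4 CFU/well to two-fold drug series in cation-adjusted Mueller-Hinton broth. Trays incubate 16-20 hours at 35° C. before reading.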

E. faecalis ATCC29212 = conditions: C: E. faecalis ATCC29212, 35° C., 16-20 hours
Outline: as §1

H. influenzae ATCC49247 = conditions: E: H. influenzae ATCC49247, 35° C., 16-20 hours
Outline: as §1

S. aureus ATCC29213 = conditions: B: S. aureus ATCC29213, 35° C., 16-20 hours
Outline: as §1

S. pneumoniae ATCC49619 = conditions: D: S. pneumoniae ATCC49619, 35° C., 16-20 hours
Outline: as §1

| Structure (SMILES) | MIC (E. coli OC2605) | MIC (E. faecalis ATCC29212) | MIC (H. influenzae ATCC49247) | MIC (S. aureus ATCC29213) | MIC (S. pneumoniae ATCC49619) |
| --- | --- | --- | --- | --- | --- |
| CC[C@H]1OC(=O)[C@H](C)C(=O)[C@H](C)[C@@H](O[C@@H]2O[C@H](C)C[C@H](N(C)C)[C@H]2O)[C@](C)(OC(=O)NC/C=C/c2ccc(-c3ncccn3)cc2F)C[C@@H](C)C(=O)[C@H](C)[C@H]2NC(=O)O[C@@]21C [Compound 88] | 16 µg/mL (≈ 18.7 µM) | 0.06 µg/mL (≈ 0.0703 µM) | 8 µg/mL (≈ 9.37 µM) | 0.25 µg/mL (≈ 0.293 µM) | 0.06 µg/mL (≈ 0.0703 µM) |
| CCC1OC(=O)C(C)(F)C(=O)C(C)C(OC2OC(C)CC(N(C)C)C2O)C(C)(OC(=O)NCC=Cc2ccc(-c3ncccn3)cc2)CC(C)C(=O)C(C)C2NC(=O)OC12C (stereo not shown) [Compound 89] | 16 µg/mL (≈ 18.7 µM) | 0.25 µg/mL (≈ 0.293 µM) | 8 µg/mL (≈ 9.37 µM) | 0.5 µg/mL (≈ 0.585 µM) | 0.06 µg/mL (≈ 0.0703 µM) |
| CCC1OC(=O)C(C)(F)C(=O)C(C)C(OC2OC(C)CC(N(C)C)C2O)C(C)(OC(=O)NCC=Cc2ccc3ncccc3c2)CC(C)C(=O)C(C)C2NC(=O)OC12C (stereo not shown) [Compound 90] | 8 µg/mL (≈ 9.67 µM) | 0.06 µg/mL (≈ 0.0726 µM) | 4 µg/mL (≈ 4.84 µM) | 0.25 µg/mL (≈ 0.302 µM) | 0.03 µg/mL (≈ 0.0363 µM) |
| CCC1OC(=O)C(C)(F)C(=O)C(C)C(OC2OC(C)CC(N(C)C)C2O)C(C)(OC(=O)NCC=Cc2ccc(-n3cccn3)cc2)CC(C)C(=O)C(C)C2NC(=O)OC12C (stereo not shown) [Compound 91] | 16 µg/mL (≈ 19 µM) | 0.12 µg/mL (≈ 0.143 µM) | 4 µg/mL (≈ 4.75 µM) | 0.25 µg/mL (≈ 0.297 µM) | 0.06 µg/mL (≈ 0.0713 µM) |
| CC[C@H]1OC(=O)[C@H](C)C(=O)[C@H](C)[C@@H](O[C@@H]2O[C@H](C)C[C@H](N(C)C)[C@H]2O)[C@](C)(OC(=O)NC/C=C/c2cn(-c3ncccn3)cn2)C[C@@H](C)C(=O)[C@H](C)[C@H]2NC(=O)O[C@@]21C [Compound 92] | 16 µg/mL (≈ 19.4 µM) | 0.12 µg/mL (≈ 0.145 µM) | 2 µg/mL (≈ 2.42 µM) | 0.25 µg/mL (≈ 0.303 µM) | 0.03 µg/mL (≈ 0.0363 µM) |
| CC[C@H]1OC(=O)[C@H](C)C(=O)[C@H](C)[C@@H](O[C@@H]2O[C@H](C)C[C@H](N(C)C)[C@H]2O)[C@](C)(OC(=O)NCc2cn(-c3ncccn3)cn2)C[C@@H](C)C(=O)[C@H](C)[C@H]2NC(=O)O[C@@]21C [Compound 93] | 16 µg/mL (≈ 20 µM) | 0.06 µg/mL (≈ 0.075 µM) | 1 µg/mL (≈ 1.25 µM) | 0.5 µg/mL (≈ 0.625 µM) | ≦0.015 μg/mL |
| CC[C@H]1OC(=O)[C@H](C)C(=O)[C@H](C)[C@@H](O[C@@H]2O[C@H](C)C[C@H](N(C)C)[C@H]2OC(C)=O)[C@](C)(OC(=O)NC/C=C/c2ccc(-c3ncccn3)cc2)C[C@@H](C)C(=O)[C@H](C)[C@H]2NC(=O)O[C@@]21C [Compound 94] | >16 µg/mL | 0.12 µg/mL (≈ 0.137 µM) | 2 µg/mL (≈ 2.28 µM) | 0.25 µg/mL (≈ 0.285 µM) | 0.06 µg/mL (≈ 0.0683 µM) |
| CCC1OC(=O)C(C)C(=O)C(C)C(OC2OC(C)CC(N(C)C)C2O)C(C)(OC(=O)NCC=Cc2ccc(-c3cccnn3)cc2)CC(C)C(=O)C(C)C2NC(=O)OC12C (stereo not shown) [Compound 96] | 4 µg/mL (≈ 4.78 µM) | 0.12 µg/mL (≈ 0.144 µM) | 1 µg/mL (≈ 1.2 µM) | 0.25 µg/mL (≈ 0.299 µM) | 0.03 µg/mL (≈ 0.0359 µM) |
| CC[C@H]1OC(=O)[C@H](C)C(=O)[C@H](C)[C@@H](O[C@@H]2O[C@H](C)C[C@H](N(C)C)[C@H]2O)[C@](C)(OC(=O)NCc2ccc(-c3cccnn3)cc2)C[C@@H](C)C(=O)[C@H](C)[C@H]2NC(=O)O[C@@]21C [Compound 97] | 16 µg/mL (≈ 19.8 µM) | 0.06 µg/mL (≈ 0.0741 µM) | 2 µg/mL (≈ 2.47 µM) | 0.5 µg/mL (≈ 0.617 µM) | 0.03 µg/mL (≈ 0.037 µM) |
| CCC1OC(=O)C(C)(O)C(=O)C(C)C(OC2OC(C)CC(N(C)C)C2O)C(C)(OC(=O)NCC=Cc2ccc(-c3cnccn3)cc2)CC(C)C(=O)C(C)C2NC(=O)OC12C (stereo not shown) [Compound 98] | >16 µg/mL | 0.25 µg/mL (≈ 0.293 µM) | 4 µg/mL (≈ 4.69 µM) | 0.5 µg/mL (≈ 0.587 µM) | 0.03 µg/mL (≈ 0.0352 µM) |
| CCC1OC(=O)C(C)(F)C(=O)C(C)C(OC2OC(C)CC(N(C)C)C2O)C(C)(OC(=O)NCC=Cc2ccc(-c3cnccn3)cc2)CC(C)C(=O)C(C)C2NC(=O)OC12C (stereo not shown) [Compound 101] | 8 µg/mL (≈ 9.37 µM) | 0.12 µg/mL (≈ 0.141 µM) | 2 µg/mL (≈ 2.34 µM) | 0.25 µg/mL (≈ 0.293 µM) | 0.03 µg/mL (≈ 0.0351 µM) |
| CC[C@H]1OC(=O)[C@H](C)C(=O)[C@H](C)[C@@H](O[C@@H]2O[C@H](C)C[C@H](N(C)C)[C@H]2O)[C@](C)(OC(=O)NCCOCc2ccc(-c3ncccn3)cc2)C[C@@H](C)C(=O)[C@H](C)[C@H]2NC(=O)O[C@@]21C [Compound 107] | >16 µg/mL | 0.12 µg/mL (≈ 0.141 µM) | 4 µg/mL (≈ 4.68 µM) | 0.25 µg/mL (≈ 0.293 µM) | 0.06 µg/mL (≈ 0.0703 µM) |
| CCC1OC(=O)C(C)(F)C(=O)C(C)C(OC2OC(C)CC(N(C)C)C2O)C(C)(OC(=O)NCCOCc2ccc(-c3ncccn3)cc2)CC(C)C(=O)C(C)C2NC(=O)OC12C (stereo not shown) [Compound 108] | >16 µg/mL | 0.25 µg/mL (≈ 0.287 µM) | 4 µg/mL (≈ 4.59 µM) | 0.5 µg/mL (≈ 0.573 µM) | 0.06 µg/mL (≈ 0.0688 µM) |
| CC[C@H]1OC(=O)[C@H](C)C(=O)[C@H](C)[C@@H](O[C@@H]2O[C@H](C)C[C@H](N(C)C)[C@H]2O)[C@](C)(OC(=O)NCCN2C(=O)c3ccccc3C2=O)C[C@@H](C)C(=O)[C@H](C)[C@H]2NC(=O)O[C@@]21C [Compound 109] | >16 µg/mL | 2 µg/mL (≈ 2.45 µM) | 16 µg/mL (≈ 19.6 µM) | 8 µg/mL (≈ 9.82 µM) | 0.25 µg/mL (≈ 0.307 µM) |
| CC[C@H]1OC(=O)[C@H](C)C(=O)[C@H](C)[C@@H](O[C@@H]2O[C@H](C)C[C@H](N(C)C)[C@H]2O)[C@](C)(OC(=O)NCCN)C[C@@H](C)C(=O)[C@H](C)[C@H]2NC(=O)O[C@@]21C [Compound 110] | >16 µg/mL | 8 µg/mL (≈ 11.7 µM) | 16 µg/mL (≈ 23.4 µM) | 16 µg/mL (≈ 23.4 µM) | 1 µg/mL (≈ 1.46 µM) |
| CC[C@H]1OC(=O)[C@H](C)C(=O)[C@H](C)[C@@H](O[C@@H]2O[C@H](C)C[C@H](N(C)C)[C@H]2O)[C@](C)(OC(=O)NCCNC(=O)c2ccc(-c3ccccc3)cc2)C[C@@H](C)C(=O)[C@H](C)[C@H]2NC(=O)O[C@@]21C [Compound 111] | >16 µg/mL | 0.5 µg/mL (≈ 0.578 µM) | 4 µg/mL (≈ 4.62 µM) | 1 µg/mL (≈ 1.16 µM) | 0.06 µg/mL (≈ 0.0694 µM) |
| CC[C@H]1OC(=O)[C@H](C)C(=O)[C@H](C)[C@@H](O[C@@H]2O[C@H](C)C[C@H](N(C)C)[C@H]2O)[C@](C)(OC(=O)NCCNC(=O)c2cccnc2)C[C@@H](C)C(=O)[C@H](C)[C@H]2NC(=O)O[C@@]21C [Compound 112] | >16 µg/mL | 2 µg/mL (≈ 2.53 µM) | 16 µg/mL (≈ 20.3 µM) | 16 µg/mL (≈ 20.3 µM) | 0.5 µg/mL (≈ 0.633 µM) |
| CC[C@H]1OC(=O)[C@H](C)C(=O)[C@H](C)[C@@H](O[C@@H]2O[C@H](C)C[C@H](N(C)C)[C@H]2O)[C@](C)(OC(=O)NCCNC(=O)c2cnc3ccccc3c2)C[C@@H](C)C(=O)[C@H](C)[C@H]2NC(=O)O[C@@]21C [Compound 113] | >16 µg/mL | 1 µg/mL (≈ 1.19 µM) | 8 µg/mL (≈ 9.52 µM) | 4 µg/mL (≈ 4.76 µM) | 0.06 µg/mL (≈ 0.0714 µM) |
| CC[C@H]1OC(=O)[C@H](C)C(=O)[C@H](C)[C@@H](O[C@@H]2O[C@H](C)C[C@H](N(C)C)[C@H]2O)[C@](C)(OC(=O)NCCNCc2cnc3ccccc3c2)C[C@@H](C)C(=O)[C@H](C)[C@H]2NC(=O)O[C@@]21C [Compound 114] | >16 µg/mL | 0.25 µg/mL (≈ 0.303 µM) | 4 µg/mL (≈ 4.84 µM) | 2 µg/mL (≈ 2.42 µM) | 0.06 µg/mL (≈ 0.0726 µM) |
| CC[C@H]1OC(=O)[C@H](C)C(=O)[C@H](C)[C@@H](O[C@@H]2O[C@H](C)C[C@H](N(C)C)[C@H]2O)[C@](C)(OC(=O)NCCNCc2ccc(-c3ncccn3)cc2)C[C@@H](C)C(=O)[C@H](C)[C@H]2NC(=O)O[C@@]21C [Compound 115] | >16 µg/mL | 0.5 µg/mL (≈ 0.586 µM) | 16 µg/mL (≈ 18.8 µM) | 2 µg/mL (≈ 2.34 µM) | 0.06 µg/mL (≈ 0.0703 µM) |
